Data set [1] in a line: hygroscopicity (vapor sorption analysis). The data set is classed as physicochemical. To be noted: for weight when equilibrated back down to 5% RH: 5% RH after 95% RH; for weight increase when equilibrated at 95% RH: 95% RH at 25° C. The procedure: Hygroscopicity data was obtained on a VTI Symmetrical Vapor Sorption Analyzer Model SGA-1. Data was collected at room temperature from 5-95% relative humidity and back, 5% relative humidity change per step. Equilibrium conditions were 0.01 weight percent change in 5 minutes with a maximum equilibration time of 180 minutes.

The target of a further data set is HIV integrase (Human immunodeficiency virus type 1 group M subtype B, UniProt P04585). Description: integrase inhibition assay in which strand transfer is catalyzed by recombinant integrase. Format: biochemical. The following applies: assay of Example 193 of WO 02/30930. The source says:
Compound A is an inhibitor of HIV integrase. […] The strand transfer assay is described in Example 193 of WO 02/30930.

For data set [2], the system named is acute HIV infection of T-lymphoid cells. Put plainly: assay for the inhibition of acute HIV infection of T-lymphoid cells. Format: cell-based. The following applies: in accordance with Vacca et al., PNAS 1994, 91: 4096-4100.
A further data set can be described thus: solubility in water. The data set is classed as physicochemical.
Where [3] appears, read: listed as Form 1 Crystalline Potassium Salt of Compound A.

SMILES strings stand for the structures. Structures can show the parent of a compound that is named as a salt.

In the case of `Cc1nnc(C(=O)NC(C)(C)c2nc(C(=O)NCc3ccc(F)cc3)c(O)c(=O)n2C)o1` [listing 1 of 2 here], in data set [1] (setting [3]), the “weight when equilibrated back down to 5% RH” value is on record as “returned back to approximately its dry weight” and the “weight increase when equilibrated at 95% RH” value came to 1.8%. Moreover, in data set [1] (XRPD after 5-95% RH cycle), the “phase by XRPD after the hygroscopicity experiment” value is reported as “had not changed phases”.

`Cc1nnc(C(=O)NC(C)(C)c2nc(C(=O)NCc3ccc(F)cc3)c(O)c(=O)n2C)o1` [listing 2 of 2 here]: in data set [1], the “weight when equilibrated back down to 5% RH” value is reported as “returned to its dry weight” and the “weight increase when equilibrated at 95% RH” value is on record as 1%.

On to `Cc1nnc(C(=O)NC(C)(C)c2nc(C(=O)NCc3ccc(F)cc3)c(O)c(=O)n2C)o1` [Compound A, N-(4-fluorobenzyl)-5-hydroxy-1-methyl-2-(1-methyl-1-{[(5-methyl-1,3,4-oxadiazol-2-yl)carbonyl]amino}ethyl)-6-oxo-1,6-dihydropyrimidine-4-carboxamide], for which the “inhibition of integrase strand transfer” value at HIV integrase is given as “potent inhibitor”. For the same compound, in data set [2], the “inhibition of acute HIV infection of T-lymphoid cells” value is listed as “active”. In “solubility in water”, the solubility in water entry was “limited”.

Turning to `Cc1nnc(C(=O)NC(C)(C)c2nc(C(=O)NCc3ccc(F)cc3)c(O)c(=O)n2C)o1` [potassium salt of Compound A], the solubility in water result in the data set “solubility in water” is “comparatively quite soluble”. Also, the “solubility in water compared to the free base” value in the data set “solubility in water” (relative to Compound A free base) is recorded as “significantly more soluble”.

Source of the values: patent US8357798B2, “Process for preparing N-alkylated hydroxypyrimidinone compounds” (Merck Sharp & Dohme Corp., priority 2004, dated 2013).
